Measurements reported in the supplement of paper PMC10307832.

Key:
Experiment in all cases: relative viability (nuclei count vs DMSO), 5 days (fraction); higher = more cells survive
[1] = compound: CC(C)C[C@@H](C(=O)N[C@H](C(=O)OC1CCCC1)c1ccccc1)[C@H](O)C(=O)NO [Tosedostat] + O=C(CCCCCCC(=O)Nc1ccccc1)NO [Vorinostat] (partner 1 µM)
Procedure, shortened: (§1)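 Five library-drug doses in √10 steps were combined with a fixed anchor-drug dose, or a single drug was given alone, by pin tool to lung cancer cell lines in 1536-well plates the day after seeding. Nuclei were stained and counted after 5 days. Relative viability is the nuclei count in treated wells over that in vehicle wells, taken as the median of duplicate plates.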

[2] = compound: CC(C)C[C@@H](C(=O)N[C@H](C(=O)OC1CCCC1)c1ccccc1)[C@H](O)C(=O)NO [Tosedostat] + COc1cc2c(Oc3ccc(NC(=O)C4(C(=O)Nc5ccc(F)cc5)CC4)cc3F)ccnc2cc1OCCCN1CCOCC1 [Foretinib] (partner 0.25 µM)
Procedure, shortened: as §1

[3] = compound: CC1=NN=C(O1)C2=NN=C(C=C2)N3CCC(CC3)OC4=C(C=CC(=C4)F)Cl + CC(=O)Nc1cccc(-n2c(=O)n(C3CC3)c(=O)c3c(Nc4ccc(I)cc4F)n(C)c(=O)c(C)c32)c1 [Trametinib] (partner 0.02 µM)
Procedure, shortened: as §1

[4] = compound: CC1=NN=C(O1)C2=NN=C(C=C2)N3CCC(CC3)OC4=C(C=CC(=C4)F)Cl + CC1(C)CCC(c2ccc(Cl)cc2)=C(CN2CCN(c3ccc(C(=O)NS(=O)(=O)c4ccc(N[C@H](CCN5CCOCC5)CSc5ccccc5)c(S(=O)(=O)C(F)(F)F)c4)cc3)CC2)C1 [Navitoclax] (partner 0.5 µM)
Procedure, shortened: as §1

| Cell Line | relative viability ([1]; first compound 0.02 µM) | relative viability ([1]; first compound 0.06325 µM) | relative viability ([1]; first compound 0.2 µM) | relative viability ([1]; first compound 0.6325 µM) | relative viability ([1]; first compound 2 µM) | relative viability ([2]; first compound 0.02 µM) | relative viability ([2]; first compound 0.06325 µM) | relative viability ([2]; first compound 0.2 µM) | relative viability ([2]; first compound 0.6325 µM) | relative viability ([2]; first compound 2 µM) | relative viability ([3]; first compound 0.253 µM) | relative viability ([3]; first compound 0.8 µM) | relative viability ([3]; first compound 2.53 µM) | relative viability ([3]; first compound 8 µM) | relative viability ([4]; first compound 0.253 µM) | relative viability ([4]; first compound 0.8 µM) | relative viability ([4]; first compound 2.53 µM) | relative viability ([4]; first compound 8 µM) |
| --- | --- | --- | --- | --- | --- | --- | --- | --- | --- | --- | --- | --- | --- | --- | --- | --- | --- | --- |
| LXF-289 | 0.818 | 0.716 | 0.822 | 0.703 | 0.771 | 0.981 | 1 | 1.04 | 0.943 | 0.962 | 0.603 | 0.582 | 0.637 | 0.58 | 0.714 | 0.7 | 0.673 | 0.618 |
| NCI-H23 | 0.646 | 0.52 | 0.707 | 0.502 | 0.51 | 1.01 | 0.889 | 0.919 | 0.827 | 0.69 | 0.34 | 0.37 | 0.372 | 0.381 | 0.808 |  | 0.71 | 0.722 |
| NCI-H358 | 0.669 | 0.562 | 0.478 | 0.313 | 0.264 | 0.872 | 0.634 | 0.473 | 0.289 | 0.347 | 0.131 | 0.137 | 0.146 | 0.124 |  |  |  |  |
| NCI-H522 | 1.12 | 0.897 | 0.954 | 0.918 | 0.916 |  |  |  |  |  | 0.785 | 0.852 | 0.783 | 0.924 |  |  |  |  |
| NCI-H650 | 0.752 | 0.528 | 0.416 | 0.334 | 0.308 | 1.05 | 1.04 | 0.92 | 0.941 | 0.765 | 0.933 | 0.874 | 0.934 | 0.862 |  |  |  |  |
| NCI-H661 | 0.837 | 0.826 | 0.796 | 0.775 | 0.814 | 1.07 | 0.99 | 0.98 | 0.979 | 0.937 | 0.489 | 0.472 | 0.429 | 0.379 |  |  |  |  |
| NCI-H1299 |  |  |  |  |  | 1.15 | 1.14 | 1.14 | 1.04 | 0.966 |  |  |  |  | 0.895 | 0.932 | 0.894 | 0.835 |
| NCI-H1563 |  |  |  |  |  | 0.961 | 0.997 | 0.958 | 1.12 | 1 |  |  |  |  |  |  |  |  |
| NCI-H1623 |  |  |  |  |  | 0.825 | 0.905 | 0.856 | 0.843 | 0.794 |  |  |  |  |  |  |  |  |
| NCI-H1648 | 0.316 | 0.661 | 0.553 | 0.365 | 0.354 |  |  |  |  |  | 0.442 | 0.43 | 0.405 | 0.479 |  |  |  |  |
| NCI-H1703 |  |  |  |  |  | 0.329 | 0.288 | 0.327 |  | 0.322 |  |  |  |  | 0.9 | 0.987 | 0.783 | 0.71 |
| NCI-H1792 |  |  |  |  |  |  |  |  |  |  | 0.359 | 0.398 | 0.647 | 0.487 | 0.4 | 0.409 | 0.409 | 0.482 |
| NCI-H2342 | 0.851 | 0.79 | 0.75 | 0.702 | 0.843 | 0.944 | 1.01 | 1.27 | 0.924 | 0.89 | 0.581 | 0.554 | 0.55 | 0.486 |  |  |  |  |
| SW 900 | 0.37 | 0.35 | 0.488 | 0.515 | 0.568 | 0.854 | 0.904 | 0.709 | 0.765 | 0.61 |  | 0.749 | 0.862 | 0.621 |  |  |  |  |
